Among the data in patent US8080657B2, “Compounds of reverse turn mimetics and the use thereof” (Choongwae Pharma Corporation, priority 2008, dated 2011) are IC50 values, retold here.

For the assay, the system named is Wnt signaling. In words: TopFlash reporter gene bioassay in SW480 cells. Type of assay: cell-based. On the technique in general: A reporter such as luciferase makes a cellular process visible.
Setting [1] is: Homo sapiens, SW480, TopFlash reporter gene assay, inhibition of Wnt signaling; read-out: RGA, IC50 (μM) TopF.
Setting [2] is: Homo sapiens, SW480; read-out: RGA, IC50 (μM) TopF.
[3] abbreviates: TopFlash reporter gene assay, inhibition of Wnt signaling; read-out: RGA, IC50 (μM) TopF.

Like-named read-outs stand apart in the source and are kept apart here.

As usually defined, the IC50 is the point on the concentration scale where inhibition reaches its midpoint. `C=CCN1CC(=O)N2[C@@H](Cc3ccc(O)cc3)C(=O)N(Cc3cccc(C(=O)N4CCOCC4)c3)C[C@@H]2N1C(=O)NCc1ccccc1` [compound 212]: the IC50 under setting [1] came to 3.62 ± 0.63 µM.

With `C=CCN1CC(=O)N2[C@@H](Cc3ccc(O)cc3)C(=O)N(Cc3cccc(OC)c3OS(=O)(=O)CCCCCCCC)C[C@@H]2N1C(=O)NCc1ccccc1` [compound 161], the IC50 under setting [1] came out at 14.4 ± 2.77 µM.

For `C=CCN1CC(=O)N2[C@@H](Cc3ccc(O)cc3)C(=O)N(Cc3ccccc3N3CCCC3)C[C@@H]2N1C(=O)NCc1ccccc1` [compound 96], under setting [1], the IC50 is 1.11 ± 0.25 µM.

Turning to `C=CCN1CC(=O)N2[C@@H](Cc3ccc(O)cc3)C(=O)N(Cc3cccc(C(=O)N(C)C)n3)C[C@@H]2N1C(=O)NCc1ccccc1` [compound 197], under setting [1], the IC50 turned out to be 21.8 ± 3.69 µM.

For `C=CCN1CC(=O)N2[C@@H](Cc3ccc(O)cc3)C(=O)N(Cc3cccc(C(=O)OCC)n3)C[C@@H]2N1C(=O)NCc1ccccc1` [compound 194], the IC50 under setting [1] was 2.89 ± 0.5 µM.

Consider `C=CCN1CC(=O)N2[C@@H](Cc3ccc(OP(=O)(O)O)cc3)C(=O)N(Cc3cccc(N4CCCC4=O)c3)C[C@@H]2N1C(=O)NCc1ccccc1` [compound 94], for which the IC50 under setting [2] came out at 1.09 ± 0.16 µM.

With `C=CCN1CC(=O)N2[C@@H](Cc3ccc(O)cc3)C(=O)N(Cc3ccc(F)c4scnc34)C[C@@H]2N1C(=O)NCCc1ccccc1` [compound 245], the IC50 under setting [3] turned out to be 6.19 ± 0.73 µM.

With `C=CCN1CC(=O)N2[C@@H](Cc3ccc(O)cc3)C(=O)N(Cc3cccc(C(=O)NNC(=O)OC(C)(C)C)c3)C[C@@H]2N1C(=O)NCc1ccccc1` [compound 210], the IC50 under setting [1] was 3.57 ± 0.89 µM.

As for `C=CCN1CC(=O)N2[C@@H](Cc3ccc(O)cc3)C(=O)N(Cc3csc4ccc([N+](=O)[O-])cc34)C[C@@H]2N1C(=O)NCc1ccccc1` [compound 32], the IC50 under setting [1] was 0.56 ± 0.07 µM.

Consider `C=CCN1CC(=O)N2[C@@H](Cc3ccc(O)cc3)C(=O)N(Cc3cccc(OC)c3OC)C[C@@H]2N1C(=O)NCc1ccccn1` [compound 262], for which, under setting [1], the IC50 came to 8.48 ± 1.37 µM.

As to `C=CCN1CC(=O)N2[C@@H](Cc3ccc(O)cc3)C(=O)N(Cc3c[nH]c4ccc(OC)cc34)C[C@@H]2N1C(=O)NCc1ccccc1` [compound 253], under setting [1], the IC50 is 7.1 ± 0.99 µM.

Consider `C=CCN1CC(=O)N2C(CN(Cc3cccc(C#CC(C)(C)C)n3)C(=O)[C@@H]2Cc2ccc(O)cc2)N1C(=O)NCc1ccccc1` (stereo partly drawn) [compound 116], for which the half-inhibitory concentration (IC50) under setting [1] is 1.43 ± 0.26 µM.

With `C=CCN1CC(=O)N2[C@@H](Cc3ccc(O)cc3)C(=O)N(Cc3ccccc3-n3cnnn3)C[C@@H]2N1C(=O)NCc1ccccc1` [compound 164], the IC50 under setting [1] was 15.7 ± 3.22 µM.

Turning to `C=CCN1CC(=O)N2[C@@H](Cc3ccc(O)cc3)C(=O)N(Cc3csc4cc(N)ccc34)C[C@@H]2N1C(=O)NCc1ccccc1` [compound 68], the IC50 under setting [1] worked out at 0.86 ± 0.09 µM.

For `C=CCN1CC(=O)N2[C@@H](Cc3ccc(O)cc3)C(=O)N(Cc3cc(C(C)(C)C)cc(C(C)(C)C)c3)C[C@@H]2N1C(=O)NCc1ccccc1` [compound 163], under setting [1], the IC50 amounted to 15.7 ± 1.87 µM.

For the compound `C=CCOc1ccccc1CN1C[C@H]2N(C(=O)CN(CC=C)N2C(=O)NCc2ccccc2)[C@@H](Cc2ccc(O)cc2)C1=O` [compound 145], under setting [1], the IC50 stood at 1.96 ± 0.27 µM.

As for `C=CCN1CC(=O)N2[C@@H](Cc3ccc(O)cc3)C(=O)N(Cc3csc4cc(NC(C)=O)ccc34)C[C@@H]2N1C(=O)NCc1ccccc1` [compound 142], under setting [1], the IC50 was 1.92 ± 0.28 µM.

As for `C=CCN1CC(=O)N2[C@@H](Cc3ccc(OP(=O)(O)O)cc3)C(=O)N(Cc3ccccc3SC)C[C@@H]2N1C(=O)NCc1ccccc1` [compound 42], under setting [2], the IC50 was 0.66 ± 0.0079 µM.

On to `C=CCN1CC(=O)N2[C@@H](Cc3ccc(O)cc3)C(=O)N(Cc3cccc(-c4ccc(S(C)(=O)=O)cc4)n3)C[C@@H]2N1C(=O)NCc1ccccc1` [compound 261], for which the IC50 under setting [1] stood at 8.48 ± 0.9 µM.

`C=CCN1CC(=O)N2[C@@H](Cc3ccc(O)cc3)C(=O)N(Cc3cccc(-c4cccc(C#N)c4)n3)C[C@@H]2N1C(=O)NCc1ccccc1` [compound 191]: the IC50 under setting [1] is 2.81 ± 0.52 µM.

`C=CCN1CC(=O)N2[C@@H](Cc3ccc(O)cc3)C(=O)N(Cc3csc4cc(NC=O)ccc34)C[C@@H]2N1C(=O)NCc1ccccc1` [compound 111]: under setting [1], the IC50 was 1.41 ± 0.21 µM.

On to `C=CCN1CC(=O)N2[C@@H](Cc3ccc(OP(=O)(O)O)cc3)C(=O)N(Cc3ccccc3N3CCCC3)C[C@@H]2N1C(=O)NCc1ccccc1` [compound 112], for which, under setting [2], the IC50 is 1.41 ± 0.21 µM.

For `C=CCN1CC(=O)N2[C@@H](Cc3ccc(O)cc3)C(=O)N(Cc3cccc4c(Cl)c[nH]c34)C[C@@H]2N1C(=O)NCc1ccccc1` [compound 19], the IC50 under setting [1] was 0.43 ± 0.08 µM.

Regarding `C=CCN1CC(=O)N2[C@@H](Cc3ccc(O)cc3)C(=O)N(Cc3cccnc3C3CC3)C[C@@H]2N1C(=O)NCc1ccccc1` [compound 108], under setting [1], the IC50 turned out to be 1.31 ± 0.33 µM.

As to `C=CCN1CC(=O)N2[C@@H](Cc3ccc(O)cc3)C(=O)N(Cc3cccc(-c4ccc(OC)nc4)c3)C[C@@H]2N1C(=O)NCc1ccccc1` [compound 121], the IC50 under setting [1] worked out at 1.53 ± 0.17 µM.

As for `C=CCN1CC(=O)N2[C@@H](Cc3ccc(O)cc3)C(=O)N(Cc3cccc(OC)c3OCC3CC3)C[C@@H]2N1C(=O)NCc1ccccc1` [compound 79], under setting [1], the concentration for half-maximal inhibition (IC50) came to 0.95 ± 0.21 µM.

Turning to `C=CCN1CC(=O)N2[C@@H](Cc3ccc(O)cc3)C(=O)N(Cc3cccc(-c4cccc(C(N)=O)c4)c3)C[C@@H]2N1C(=O)NCc1ccccc1` [compound 60], the IC50 under setting [1] was found to be 0.79 ± 0.1 µM.

With `C=CCN1CC(=O)N2[C@@H](Cc3ccc(O)cc3)C(=O)N(Cc3ccccc3[N+](=O)[O-])C[C@@H]2N1C(=O)NCc1ccccc1` [compound 30], the IC50 under setting [1] is 0.54 ± 0.06 µM.

Take `C=CCN1CC(=O)N2[C@@H](Cc3ccc(O)cc3)C(=O)N(Cc3csc4c([N+](=O)[O-])cccc34)C[C@@H]2N1C(=O)NCc1ccccc1` [compound 59]: the IC50 under setting [1] came out at 0.78 ± 0.15 µM.

`C=CCN1CC(=O)N2[C@@H](Cc3ccc(O)cc3)C(=O)N(Cc3cc(C(C)(C)C)cc(C(C)(C)C)c3OC)C[C@@H]2N1C(=O)NCc1ccccc1` [compound 150]: under setting [1], the IC50 is 10.2 ± 1.55 µM.

Regarding `C=CCN1CC(=O)N2[C@@H](Cc3ccc(O)cc3)C(=O)N(Cc3cccc(-c4cccnc4)c3)C[C@@H]2N1C(=O)NCc1ccccc1` [compound 12], the IC50 under setting [1] was 0.34 ± 0.12 µM.

In the case of `C=CCN1CC(=O)N2[C@@H](Cc3ccc(O)cc3)C(=O)N(Cc3cccc4ccn(Cc5cccc([N+](=O)[O-])c5)c34)C[C@@H]2N1C(=O)NCc1ccccc1` [compound 204], the IC50 under setting [1] turned out to be 3.13 ± 0.44 µM.

In the case of `C=CCN1CC(=O)N2[C@@H](Cc3ccc(O)cc3)C(=O)N(Cc3cccc(C(=O)N(C)C)c3)C[C@@H]2N1C(=O)NCc1ccccc1` [compound 240], the IC50 under setting [1] came to 5.41 ± 0.89 µM.

On to `C=CCN1CC(=O)N2[C@@H](Cc3ccc(O)cc3)C(=O)N(Cc3cccc(C(=O)NC4CCCC4)c3)C[C@@H]2N1C(=O)NCc1ccccc1` [compound 266], for which the IC50 under setting [3] worked out at 9.43 ± 1.65 µM.

As for `C=CCN1CC(=O)N2[C@@H](Cc3ccc(O)cc3)C(=O)N(Cc3csc4cc(NS(N)(=O)=O)ccc34)C[C@@H]2N1C(=O)NCc1ccccc1` [compound 202], the IC50 under setting [1] turned out to be 28.8 ± 5.69 µM.

Turning to `C=CCN1CC(=O)N2[C@@H](Cc3ccc(O)cc3)C(=O)N(Cc3ccc(OCC)cc3)C[C@@H]2N1C(=O)NCc1ccccc1` [compound 249], the IC50 under setting [1] worked out at 6.8 ± 1.5 µM.

`C=CCN1CC(=O)N2[C@@H](Cc3ccc(O)cc3)C(=O)N(Cc3cccc(-c4ccccc4OC)n3)C[C@@H]2N1C(=O)NCc1ccccc1` [compound 81]: the IC50 under setting [1] came to 0.97 ± 0.18 µM.

Consider `C=CCN1CC(=O)N2[C@@H](Cc3ccc(O)cc3)C(=O)N(Cc3cccc(C(=O)NCCC4=CCCCC4)c3)C[C@@H]2N1C(=O)NCc1ccccc1` [compound 130], for which, under setting [1], the IC50 was 1.66 ± 0.18 µM.

In the case of `C=CCN1CC(=O)N2[C@@H](Cc3ccc(O)cc3)C(=O)N(Cc3ccccc3N(C)Cc3ccccc3)C[C@@H]2N1C(=O)NCc1ccccc1` [compound 128], under setting [1], the IC50 is 1.61 ± 0.59 µM.

Take `C=CCN1CC(=O)N2[C@@H](Cc3ccc(O)cc3)C(=O)N(Cc3cn(S(=O)(=O)c4ccc(C)cc4)c4ccccc34)C[C@@H]2N1C(=O)NCc1ccccc1` [compound 211]: the IC50 under setting [1] was found to be 3.61 ± 0.47 µM.

With `C=CCN1CC(=O)N2[C@@H](Cc3ccc(O)cc3)C(=O)N(Cc3cccc(NC(C)=O)c3)C[C@@H]2N1C(=O)NCc1ccccc1` [compound 102], the IC50 under setting [1] worked out at 1.25 ± 0.21 µM.

In the case of `C=CCN1CC(=O)N2[C@@H](Cc3ccc(O)cc3)C(=O)N(Cc3csc4ccc(NC(N)=O)cc34)C[C@@H]2N1C(=O)NCc1ccccc1` [compound 195], the IC50 under setting [1] amounted to 20.9 ± 3.94 µM.

As for `C=CCN1CC(=O)N2[C@@H](Cc3ccc(OS(=O)(=O)NC)cc3)C(=O)N(Cc3ccc(F)cc3F)C[C@@H]2N1C(=O)NCc1ccccc1` [compound 151], under setting [1], the IC50 is 10.2 ± 2.3 µM.

For `C=CCOc1c(CN2C[C@H]3N(C(=O)CN(CC=C)N3C(=O)NCc3ccccc3)[C@@H](Cc3ccc(O)cc3)C2=O)cccc1C(C)(C)C` [compound 143], under setting [1], the IC50 worked out at 1.93 ± 0.18 µM.

Turning to `C=CCN1CC(=O)N2[C@@H](Cc3ccc(O)cc3)C(=O)N(Cc3cn(CCC)c4ccccc34)C[C@@H]2N1C(=O)NCc1ccccc1` [compound 159], under setting [1], the IC50 came out at 14.1 ± 2.3 µM.

Take `C=CCN1CC(=O)N2[C@@H](Cc3ccc(O)cc3)C(=O)N(Cc3cccc(N(C)C=O)c3)C[C@@H]2N1C(=O)NCc1ccccc1` [compound 113]: the IC50 under setting [1] is 1.41 ± 0.38 µM.

`C=CCN1CC(=O)N2[C@@H](Cc3ccc(O)cc3)C(=O)N(Cc3cccc(-c4cccc(OC)c4)c3)C[C@@H]2N1C(=O)NCc1ccccc1` [compound 137]: the IC50 under setting [1] is 1.86 ± 0.3 µM.

Regarding `C=CCN1CC(=O)N2[C@@H](Cc3ccc(O)cc3)C(=O)N(Cc3cccc(C#N)c3F)C[C@@H]2N1C(=O)NCc1ccccc1` [compound 97], the IC50 under setting [1] is 1.13 ± 0.05 µM.

`C=CCN1CC(=O)N2[C@@H](Cc3ccc(O)cc3)C(=O)N(Cc3csc4cc(NCCC(C)(C)C)ccc34)C[C@@H]2N1C(=O)NCc1ccccc1` [compound 51]: the IC50 under setting [1] was determined as 0.72 ± 0.15 µM.

Regarding `C=CCN1CC(=O)N2[C@@H](Cc3ccc(OS(N)(=O)=O)cc3)C(=O)N(Cc3cccc(C(N)=O)c3)C[C@@H]2N1C(=O)NCc1ccccc1` [compound 229], the IC50 under setting [1] was found to be 4.78 ± 0.69 µM.

For the compound `C=CCN1CC(=O)N2[C@@H](Cc3ccc(O)cc3)C(=O)N(Cc3csc4c([N+](=O)[O-])cccc34)C[C@@H]2N1C(=O)NCc1ccccc1` [compound 148], the IC50 (Homo sapiens, SW480, read-out: RGA, IC50 (μM) TopF) worked out at 10 ± 1.7 µM.
